In patent US7252936B2 (priority 1994, dated 2007):

Experiments:
[1] = test system: M. tuberculosis strains with Aspartic acid 516 changed into Valine or Tyrosine; assay type: cell-based
M. tuberculosis = test: microbe, parasite or virus in culture; assay type: cell-based; conditions: Mycobacterium tuberculosis, read-out: MIC (Minimal Inhibitory Concentration)

Row | SMILES | Resistance or sensitivity of strains with the mutation [1] | MIC (M. tuberculosis) [µg/mL]
1 | CO[C@H]1/C=C/O[C@@]2(C)Oc3c(C)c(O)c4c(c3C2=O)C2=NC3(CCN(CC(C)C)CC3)NC2=C(NC(=O)/C(C)=C\C=C\[C@H](C)[C@H](O)[C@@H](C)[C@@H](O)[C@@H](C)[C@H](OC(C)=O)[C@@H]1C)C4=O [rifabutin] | sensitivity to rifabutin is maintained | 
2 | CO[C@H]1/C=C/O[C@@]2(C)Oc3c(C)c(O)c4c(O)c(c(/C=N/N5CCN(C)CC5)c(O)c4c3C2=O)NC(=O)/C(C)=C\C=C\[C@H](C)[C@H](O)[C@@H](C)[C@@H](O)[C@@H](C)[C@H](OC(C)=O)[C@@H]1C [rifampicin] |  | > 2
